The text below walks through data of US20070054353A1, “Nuclear receptor transcriptional corepressor and uses thereof” (priority 2002, published 2007).

The subject of one test is 5×17 mer-tk promoter. Put plainly: GAL4-LCoR repression of 5×17 mer-tk promoter in COS-7 cells. It is filed as cell-based. Conditions: TSA 3 μM. On the procedure:
(§1) All cell lines were cultured under the recommended conditions. COS-7 cells grown in […] in DMEM without phenol red, supplemented with 10% FBS were transfected in medium without serum with lipofectamine 2000 (Invitrogen, Burlington, Ont.) with 100 ng of nuclear receptor expression vectors as indicated, 200 ng of TIF-2 or TIF-2.1, as indicated, 250 ng of reporter plasmid, 250 ng of infemal control vector pCMV-βgal, and various concentrations of LCoR/pSG5 or LCoR-LSKAA/pSG5 expression vectors and pSG5 carrier. Medium was replaced 24 h after transfection by a medium containing charcoal-stripped serum and ligand (100 nM) and TSA (3 μM) for 18 h, as indicated. Cells were harvested in 200 […] of reporter lysis buffer (Promega).
(§2) COS-7 cells were cotransfected with expression vectors for ERα HEG0 (A and C) or GR (D) or PR (F) or VDR (H), ERE3-TATA-pXP2 (A and C), GRE5/pXP2 (D and F) or VDRE3tk/pXP2 (H) luciferase reporter vectors, pCMV-β-gal as internal control, and LCoR/pSG5 or LSKAA/pSG5 expression vectors as indicated. Cells were treated with 10^−7M of hormones (solid bars) or vehicle (open bars). Normalized luciferase activities (RLU) are the means±SEM from at least 3 experiments. […] Cells were transfected as in FIG. 5A with LCoR, TIF-2 or TIF2.1 as indicated. […]

In the next test the test system is HDAC6. Put plainly: ERα-dependent CAT reporter with LCoR and HDAC6 cotransfection in MCF-7 cells. The test is classed as cell-based, human. Particulars: estradiol 10 nM, TSA 500 nM, trapoxin 50 nM. On the procedure:
All cells were cultured under the recommended conditions. For immunocytochemistry, COS-7 cells grown on collagen IV-treated microscope slides in 6-well plates in DMEM, supplemented with 10% FBS were transfected in medium without serum with 12.5 μl of lipofectamine 2000 (Invitrogen, Burlington, Ont.) containing 1 μg each of pSG5/LCoR and HA-Flag-HDAC6/pcDNA3. Medium was replaced 24 h after transfection and cells were prepared for immunocytochemistry after 48 h as described below. For immunoprecipitation of tagged proteins, MCF-7 cells in 100 mm dishes were transfected with 10 μl of lipofectamine containing 10 μg of pSG5 vectors containing Flag-LCoR, Flag-m1, Flag-m2 or Flag-m1+2. For analysis of the effects of HDACs 3 or 6 on LCoR corepression, COS-7 cells (60-70% confluent) grown in DMEM without phenol red, supplemented with 10% FBS on 6-well plates were transfected in medium without serum with lipofectamine 2000 (Invitrogen, Burlington, Ontario, Canada) with 100 ng of ERα expression vectors as indicated, 300 ng of LCoR/pSG5, 300 ng of HA-HDAC3/pCDNA3.1 or […], 250 ng of ERE3-TATA-CAT reporter plasmid, 250 ng of internal control vector pCMV-βgal, and pBluescript carrier DNA to 4 μg. Medium was replaced 18 hr after transfection by a medium containing charcoal-stripped serum and ligand (10 nM) for 30 hr, as indicated. […]

A further test concerns the target T1, ERα (Homo sapiens, UniProt P03372).
T1 construct: expressed in transfected cells; host or cells: COS-7
T1 sequence (P03372 1-595): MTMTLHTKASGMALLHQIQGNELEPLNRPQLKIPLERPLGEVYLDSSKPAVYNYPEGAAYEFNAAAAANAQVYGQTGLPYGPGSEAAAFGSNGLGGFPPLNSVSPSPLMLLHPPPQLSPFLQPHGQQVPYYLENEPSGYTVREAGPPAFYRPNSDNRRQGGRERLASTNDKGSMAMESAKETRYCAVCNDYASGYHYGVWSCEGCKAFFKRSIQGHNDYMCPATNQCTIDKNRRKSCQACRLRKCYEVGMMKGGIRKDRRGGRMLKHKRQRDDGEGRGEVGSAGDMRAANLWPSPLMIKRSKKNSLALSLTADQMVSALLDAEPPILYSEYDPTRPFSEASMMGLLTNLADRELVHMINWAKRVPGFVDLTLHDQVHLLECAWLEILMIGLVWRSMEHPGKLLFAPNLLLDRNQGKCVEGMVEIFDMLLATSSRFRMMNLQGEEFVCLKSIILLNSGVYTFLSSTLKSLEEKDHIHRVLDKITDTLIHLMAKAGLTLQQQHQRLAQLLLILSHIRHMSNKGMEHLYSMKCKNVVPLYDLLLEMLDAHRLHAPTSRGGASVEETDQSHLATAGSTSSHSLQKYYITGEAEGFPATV
Put plainly: Transient transfection luciferase reporter, ERα transactivation in COS-7 cells. It is filed as cell-based. Particulars: TSA 3 μM, COS-7 cells. On the procedure:
as §1, §2

`CC(/C=C/C(=O)NO)=C\[C@@H](C)C(=O)c1ccc(N(C)C)cc1` [TSA, trichostatin A]: in the test with 5×17 mer-tk promoter, the “effect on repression by GAL-LCoR” value was “little or no effect”. For the same compound, the “effect on HDAC6 repression / enhancement of LCoR corepression of ERα transactivation” value with HDAC6 was “abolished”. For the same compound, the “effect on LCoR-dependent repression of ERα function” value on ERα was “completely abolished”.
